The text below walks through data of article PMC7828231, “Delphinidin Increases the Sensitivity of Ovarian Cancer Cell Lines to 3-bromopyruvate” (International Journal of Molecular Sciences, 2021).

For series [1], the system named is PEO1 cells. Kind of series: Level of reactive oxygen species (DHE, DCFDA). Format: cell-based, human. Particulars: 25-µM D, 20 µM 3-BP, 24 h. As to the method: (§1) The level of ROS in the MRC-5, SKOV3 and PEO1 cells after 24-h exposure to delphinidin chloride and 3-BP was assayed with 2′,7′-dichlorofluorescein diacetate (DCFDA) and dihydroethidium (DHE). Briefly, cells were seeded in a black 96-well flat clear-bottom plate at a density of 7.5 × 10^3/well for MRC-5 fibroblasts and 1 × 10^4 /well for cancer cells and allowed to attach at 37 °C for 24 h. After 24-h incubation, the medium was removed and replaced with a medium containing the examined substances at concentrations given previously. After incubation, the medium was removed and replaced by a 10-µM fluorescent probe (DHE or DCFDA) (100 µL/well). Stock solutions of the probes were prepared in DMSO, and working solutions were prepared in PBS. Fluorescence was measured at 490/529 nm (DCFDA) and 475/579 nm (DHE) for 2 h at 37 °C in 1-min intervals.

Series [2] concerns SKOV3 cells. Kind of series: Level of reactive oxygen species (DHE, DCFDA). To be noted: 25-µM D, 40 µM 3-BP, 24 h. Format: cell-based, human. As to the method: as §1
Series [3] has as its system MRC-5 fibroblasts. The experiment in a line: Level of reactive oxygen species (DHE, DCFDA). Format: cell-based, human. Particulars: 25-µM D, 40 µM 3-BP, 24 h. As to the method: as §1
For series [4], the system named is PEO1 cells. Kind of series: Apoptosis and necrosis assay (RealTime-Glo Annexin V). In kind it is cell-based, human. To be noted: after 24 h. The procedure:
The levels of apoptosis and necrosis were assayed using the RealTime-Glo™ Annexin V Apoptosis and Necrosis Assay. Cells were seeded into a white 96-well plate with optical bottom, cultured and treated adequately, as stated above. After 24 h, 100 μL of the freshly prepared reagent was added to each well according to the manufacturer’s protocols. The fluorescence and luminescence were measured according to the protocols.

Series [5] concerns Multidrug-resistant SKOV3 cells. More on the design: method as in PMID 22954696. To be noted: cited from earlier work.
In series [6] the test system is not multi-resistant SKOV3 cells. Further details: method as in PMID 22954696. To be noted: cited from earlier work.
Series [7] concerns SKOV3 cells. The experiment in a line: Mitochondrial membrane potential (JC-1). In kind it is cell-based, human. To be noted: 25-µM D, 40 µM 3-BP, 24 h. As to the method:
Changes of mitochondrial membrane potential was evaluated using 5,5′,6,6′-tetrachloro-1,1′,3,3′-tetraethyl-imidacarbocyanine iodide, 5,5′,6,6′-tetrachloro-1,1′,3,3′-tetraethylbenzimidazolocarbocyanine iodide (JC-1) with a Mitochondrial Membrane Potential Assay Kit.
The cells were seeded into black plates and treated as mentioned before. After 24h incubation with the studied compounds, the medium was discharged and replaced with 100x diluted JC-1 reagent in complete culture medium and incubated for 30 min in a CO2 incubator. Next, the plate was centrifuged at 4000 rpm for 5 min and afterwards the reagent was aspirated, and cells were washed with 150 μL/well Cell-Based Assay Buffer and centrifuged once more. After removing the supernatant, 100 μL/well of the new buffer was added. Fluorescence was measured at 540/570 nm (red fluorescence) and 485/535 nm (green fluorescence). The results were presented as a ratio of green to red fluorescence intensity ratio.

Series [8] deals with SKOV3 cells. Kind of series: Cell migration (scraped area closure). Format: cell-based, human. The procedure: Ovarian cancer cells and human normal fibroblasts were seeded on a 24-well plate at a density of 7 × 10^4/well (PEO1), 6.5 × 10^4/well (SKOV3) and 6 × 10^4/well (MRC-5) in 700 µL of appropriate cell medium and cultured at 37 °C to reach 90–95% confluence. Then, the cells in the middle of the wells were scraped off using sterile pipette tips (100 µL), cell debris was removed by washing with medium containing 2% FBS and the tested compounds diluted with medium containing 2% FBS were added. Images of the scraped area were collected after 12 h and 24 h at 10× objective magnification using an Olympus CKX53 microscope with a U-TV0. 5XC-3 digital microscope camera. The obtained results were analyzed using ImageJ software. The percentage of scraped area closure was estimated as the ratio of area measured after 12- or 24-h incubation and the area at the beginning of the experiment.

Series [9] relates to PEO1 cells. The experiment in a line: Cytotoxicity, Neutral Red survival assay. Format: cell-based, human. Particulars: read-out: IC50 of cell survival. As to the method: (§2) SKOV3 and PEO1 cells were seeded in a clear 96-well plate at a density of 1 × 10^4 cells/well in 100-µL culture medium. MRC-5 cells were seeded at a density of 7.5 × 10^3/well and allowed to attach for 24 h at 37 °C. After incubation, the cells were treated with delphinidin chloride in a concentration range of 10–100 µM and 3-BP at concentrations between 5–25 µM for PEO1 and 10–50 µM for MRC-5 and SKOV3. Nontreated cells were used as a control. Stock solutions of tested substances were prepared in DMSO and their working solutions in culture media. The DMSO concentration was adjusted to 0.2% in all samples, which had no significant effect on the treated cells. After 24-h exposure time, the medium was removed and replaced with 100 µL of […] neutral red solution, and the cells were incubated at 37 °C for 1 h. Then, the cells were washed with PBS; fixed with 100 µL/well of 50% ethanol, 49% H2O and 1% glacial acetic acid and shaken (700 rpm) at room temperature for 20 min. Absorbance was measured at 540 nm against 620 nm.

Series [10] concerns SKOV3 cells. The experiment in a line: Cytotoxicity, Neutral Red survival assay. To be noted: read-out: IC50 of cell survival. Format: cell-based, human. As to the method:
as §2

Series [11] relates to MRC-5 fibroblasts. Kind of series: Cytotoxicity, Neutral Red survival assay. In kind it is cell-based, human. The procedure: as §2
On the set-up of series [12]: method as in PMID 17729219. Particulars: DMEM medium, after 30 min; cited from earlier work.
The next series has as its system HT29 cells. Further details: method as in PMID 17729219. Particulars: cited from earlier work.
A further series deals with NHF cells. More on the design: method as in PMID 15016660. To be noted: 100–200 µM; cited from earlier work.
The test system of a further series is HeLa cells. More on the design: method as in PMID 15016660. Particulars: 100–200 µM; cited from earlier work.
Another series has as its system AGS cells. Further details: method as in PMID 15680311. Particulars: 50–200 µM; cited from earlier work.
Series [13] deals with LoVo cell subline resistant to adriamycin. More on the design: method as in PMID 20494645. Particulars: cited from earlier work.

Like-named read-outs stand apart in the source and are kept apart here.

`O=C(O)C(=O)CBr` [3-BP, 3-bromopyruvic acid]: the “level of DCFDA-reactive ROS” value in the series on PEO1 cells [1] is “increased”; with SKOV3 cells [2], “not affected”; in the series with MRC-5 fibroblasts [3] it was “not affected”. Also, the “level of DHE-detectable ROS” value with PEO1 cells [1] is recorded as “decreased”; with SKOV3 cells [2], “not affecting”; in the series on MRC-5 fibroblasts [3], “decreased”. Moreover, the induction of necrosis entry in the series with PEO1 cells [4] was “considerable induction of necrosis”. Further, the half-maximal inhibitory concentration (IC50) (usually the midpoint of a concentration-inhibition curve) was 22 ± 4 µM in series [5]; 19 ± 3 µM in series [6]; 18.7 µM in the series on PEO1 cells [9] (Homo sapiens, PEO1, 24 h); 40.5 µM in the series on SKOV3 cells [10] (Homo sapiens, SK-OV-3, 24 h). Also, the “mitochondrial potential (JC-1 fluorescence ratio)” value in the series with SKOV3 cells [7] is reported as “increased”. Also, the cell migration entry in the series on SKOV3 cells [8] is reported as “decreased”. For the same compound, the “survival of MRC-5 fibroblasts” value with MRC-5 fibroblasts [11] (up to a concentration of 50 µM) is “not compromised”.

For the compound `Oc1cc(O)c2cc(O)c(-c3cc(O)c(O)c(O)c3)[o+]c2c1` [Delphinidin chloride, 3,3′,4′,5,5′,7-hexahydroxyflavylium], the “level of DCFDA-reactive ROS” value was “increased” in the series with PEO1 cells [1], “not affected” in the series on SKOV3 cells [2] and “not affected” in the series with MRC-5 fibroblasts [3]. Besides, the “level of DHE-detectable ROS” value was “increased” in the series with PEO1 cells [1] and “decreased” in the series with MRC-5 fibroblasts [3]. In series [12], the “stability in cell culture medium” value is “not detectable”. Besides, the induction of necrosis entry in the series on PEO1 cells [4] was “considerable induction of necrosis”. Further, the IC50 with HT29 cells is 35 µM; in series [13], 16 ± 2 µM; in the series with PEO1 cells [9] (Homo sapiens, PEO1, 24 h, PEO1, 24-h exposure, Neutral Red, ND = no reduction of survival in the concentration range studied) it was under 100 µM; in the series on PEO1 cells [9] (PEO1, 24-h exposure, Neutral Red, ND = no reduction of survival in the concentration range studied), 71.5 µM; in the series with SKOV3 cells [10] (Homo sapiens, SK-OV-3, 24 h, SKOV3, 24-h exposure, Neutral Red, ND = no reduction of survival in the concentration range studied), under 100 µM; with SKOV3 cells [10] (SKOV3, 24-h exposure, Neutral Red, ND = no reduction of survival in the concentration range studied) it was 57.5 µM. For the same compound, the viability entry in the series on NHF cells is recorded as “decreased the viability”; in the series on HeLa cells, “decreased the viability”; with AGS cells, “did not affect significantly the viability”. The “mitochondrial potential (JC-1 fluorescence ratio)” value in the series on SKOV3 cells [7] is “increased”. For the same compound, the cell migration result in the series on SKOV3 cells [8] is “decreased”. Moreover, the “survival / viability of MRC-5 fibroblasts” value with MRC-5 fibroblasts [11] (up to 100 µM) is “did not affect”.
